Results from patent US9102648B1, “Bioavailable diacylhydrazine ligands for modulating the expression of exogenous genes via an ecdysone receptor complex” (Intrexon Corporation, priority 2003, dated 2015).

Molecular target: T1, Bombyx mori EcR (VP16 fusion, CVBE switch construct) (Bombyx mori, UniProt P49881)
T1 sequence (P49881 86-606): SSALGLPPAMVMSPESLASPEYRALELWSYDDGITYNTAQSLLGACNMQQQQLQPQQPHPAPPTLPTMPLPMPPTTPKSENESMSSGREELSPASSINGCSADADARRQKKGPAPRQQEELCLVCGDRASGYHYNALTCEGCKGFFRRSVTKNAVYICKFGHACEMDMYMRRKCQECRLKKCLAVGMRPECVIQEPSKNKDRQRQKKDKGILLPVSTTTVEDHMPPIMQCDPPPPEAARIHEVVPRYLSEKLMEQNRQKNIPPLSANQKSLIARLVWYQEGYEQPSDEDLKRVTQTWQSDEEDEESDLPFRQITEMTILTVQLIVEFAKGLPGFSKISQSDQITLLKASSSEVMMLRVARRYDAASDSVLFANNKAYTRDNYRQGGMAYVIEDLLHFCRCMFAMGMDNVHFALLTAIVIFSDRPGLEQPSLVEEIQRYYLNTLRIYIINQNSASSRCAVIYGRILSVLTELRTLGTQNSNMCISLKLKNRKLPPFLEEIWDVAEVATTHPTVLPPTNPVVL
T1 sequence (P19793 1-462 partner): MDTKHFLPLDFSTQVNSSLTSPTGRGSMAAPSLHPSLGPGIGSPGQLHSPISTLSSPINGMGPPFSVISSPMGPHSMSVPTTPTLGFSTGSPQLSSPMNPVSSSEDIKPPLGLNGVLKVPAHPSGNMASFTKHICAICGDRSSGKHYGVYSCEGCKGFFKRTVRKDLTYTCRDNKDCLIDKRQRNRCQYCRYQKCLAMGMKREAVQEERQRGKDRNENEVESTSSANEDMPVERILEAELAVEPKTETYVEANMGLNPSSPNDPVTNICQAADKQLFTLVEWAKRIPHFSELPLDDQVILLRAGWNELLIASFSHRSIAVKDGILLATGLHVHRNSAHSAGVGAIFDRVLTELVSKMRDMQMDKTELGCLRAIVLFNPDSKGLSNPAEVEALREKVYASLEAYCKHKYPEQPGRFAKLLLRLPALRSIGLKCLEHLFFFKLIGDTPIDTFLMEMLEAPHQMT
Experiment: Z3 Assay (HEK-293 cells with CVBE and 6XEcRE LacZ, β-galactosidase reporter)
Details: for Fold Induction, Z3 Assay, 3.3 uM: 3.3 uM ligand; for Fold Induction, Z3 Assay, 3.3 uM / Fold Induction, Z3 Assay, 33 uM: ligand treated / DMSO treated cells; for Fold Induction, Z3 Assay, 3.3 uM / EC50 / Fold Induction, Z3 Assay, 33 uM: average of two wells; for Z3 assay Rel Max FI: maximum fold induction at any concentration relative to that of GS-E ligand; for Z3 assay Rel Max FI / EC50: HEK-293 Z3 cells; for EC50: read-out: Z3 assay EC50, β-galactosidase reporter; for Fold Induction, Z3 Assay, 33 uM: 33 uM ligand
Excerpt: Dr. F. Gage provided a population of stably transformed cells containing CVBE and 6XEcRE as described in Suhr, S. T., Gil, E. B., Senut M. C., Gage, F. H. (1998) Proc. Natl. Acad. Sci. USA 95, 7999-804. Human 293 kidney cells, also referred to as HEK-293 cells, were sequentially infected with retroviral vectors encoding first the switch construct CVBE, and subsequently the reporter construct 6XEcRE Lac Z. The switch construct contained the coding sequence for amino acids 26-546 from Bombyx mori EcR (BE) (Iatrou) inserted in frame and downstream of the VP16 transactivation domain (VBE). A synthetic ATG start codon was placed under the control of cytomegalovirus (CVBE) immediate early promoter and flanked by long terminal repeats (LTR). The reporter construct contained six copies of the ecdysone response element (EcRE) binding site placed upstream of LacZ and flanked on both sides with LTR sequences (6XEcRE).
Dilution cloning was used to isolate individual clones. Clones were selected using 450 ug/mL G418 and 100 ng/mL puromycin. Individual clones were evaluated based on their response in the presence and absence of test ligands.
Human 293 kidney cells stably transformed with CVBE and 6XEcRE LacZ were maintained in Minimum Essential Medium (Mediates, 10-010-CV) containing 10% FBS (Life Technologies, 26140-087), […] G418 (Mediates, 30-234-CR), and […] (Sigma, P-7255), at 37° C. in an atmosphere containing 5% CO2 and were subculture when they reached 75% confluence.
Z3 cells were seeded into 96-well tissue culture plates at a concentration of 2.5×10^3 cells per well and incubated at 37° C. in 5% CO2 for twenty-four hours. Stock solutions of ligands were prepared in DMSO. Ligand stock solutions were diluted 100 fold in media and 50 μL of this diluted ligand solution ([…]) was added to cells. The final concentration of DMSO was maintained at 0.03% in both controls and treatments.
Reporter gene expression was evaluated 48 hours after treatment of cells, β-galactosidase activity was measured using Gal Screen™ bioluminescent reporter gene assay system from Tropix (GSY1000). Fold induction activities were calculated by dividing relative light units (“RLU”) in ligand treated cells with RLU in DMSO treated cells. Luminescence was detected at room temperature using a Dynex MLX microtiter plate luminometer.
Flanking both constructs are long terminal repeats, G418 and puromycin are selectable markers, CMV is the cytomegalovirus promoter, VBE is coding sequence for amino acids 26-546 from Bombyx mori EcR inserted downstream of the VP16 transactivation domain, 6×EcRE is six copies of the ecdysone response element, lacZ encodes for the reporter enzyme β-galactosidase.
Each assay was conducted in two separate wells, and the two values were averaged. Fold inductions were calculated by dividing relative light units (“RLU”) in ligand treated cells with RLU in DMSO treated cells. EC50s were calculated from dose response data using a three-parameter logistic model.

| Structure (SMILES) | Fold Induction, Z3 Assay, 3.3 uM | Z3 assay Rel Max FI | EC50 [nM] | fold induction at 33 µM (HEK293, read-out: Fold Induction, Z3 Assay, 33 uM) | Fold Induction, Z3 Assay, 33 uM |
| --- | --- | --- | --- | --- | --- |
| CCc1ccc(C(=O)NN(C(=O)c2cc(F)ccc2[N+](=O)[O-])C(C)(C)C)c(F)c1 [RG-115086] | 433 | 0.433 | 692 |  |  |
| Cc1cc(C)cc(C(=O)N(NC(=O)c2ccc3c(c2)OC(F)(F)O3)C(C)(C)C)c1 [RG-115256] | 647 | 0.527 | 692 |  |  |
| CCc1c(OC)cccc1C(=O)NN(C(=O)c1n[nH]c2ccccc12)C(C)(C)C [RG-115723, 1H-Indazole-3-carboxylic acid N-tert-butyl-N′-(2-ethyl-3-methoxy-benzoyl)-hydrazide] |  |  |  | 17 |  |
| CCc1c(C(=O)NN(C(=O)c2ccc(C)cc2)C(C)(C)C)ccc2c1OCOC2 [RG-115611] | 745 | 0.703 | 1580 |  |  |
| CCc1ccc(C(=O)NN(C(=O)c2cc(C)nc(Cl)c2)C(C)(C)C)c(F)c1 [RG-115112] | 618 | 0.618 | 309 |  |  |
| Cc1c(O)cccc1C(=O)NN(C(=O)c1cc(Cl)nc(Cl)c1)C(C)(C)C [RG-115261] | 31 | 0.498 | 29500 |  |  |
| CCc1c(OC)cccc1C(=O)NN(C(=O)c1nn(C(c2ccccc2)(c2ccccc2)c2ccccc2)c2ccccc12)C(C)(C)C [RG-115722] |  |  |  |  | 1 |
| CCc1c(OC)cccc1C(=O)NN(C(=O)c1cc2ccccc2n1C)C(C)(C)C [RG-115106, N′-2-Ethyl-3-methoxybenzoyl-N-t-butyl-N-(N-methylindole-2-carbonyl) hydrazide] | 68 | 0.457 | 2570 |  |  |
| COc1cc(C(=O)N(NC(=O)c2cccc(OC(C)=O)c2C)C(C)(C)C)cc(OC)c1C [RG-115557] | 426 | 0.566 | 1700 |  |  |
| COCc1c(OC)cccc1C(=O)NN(C(=O)c1cc(Cl)cc(Cl)c1)C(C)(C)C [RG-115306] | 5 | 0.424 | 3470 |  |  |
| CCc1ccc(C(=O)NN(C(=O)c2cccc([N+](=O)[O-])c2)C(C)(C)C)c(F)c1 [RG-115167] | 73 | 0.533 | 240 |  |  |
| CCc1ccc(C(=O)NN(C(=O)c2cc(Cl)nc(Cl)c2)C(C)(C)C)c(F)c1 [RG-115128] | 110 | 0.538 | 245 |  |  |
| CCc1c(OC)cccc1C(=O)NN(C(=O)c1cccc2c1OCO2)C(C)(C)C [RG-115496] | 874 | 0.878 | 1180 |  |  |
| CC(C)(C)N(NC(=O)c1ccc2c(c1)OC(F)(F)O2)C(=O)c1ccccc1[N+](=O)[O-] [RG-115352] | 7 | 0.265 | 45700 |  |  |
| Cc1cc(C)cc(C(=O)N(NC(=O)c2ccc3cc[nH]c3c2)C(C)(C)C)c1 [RG-115689] | 13 | 0.411 | 100000 |  |  |
| CCc1c(OC)cccc1C(=O)NN(C(=O)c1ccc(C(=O)OC)cn1)C(C)(C)C [RG-115717] |  |  |  |  | 9 |
| CCc1ccc(C(=O)NN(C(=O)c2cccc(OC)c2)C(C)(C)C)c(F)c1 [RG-115269] | 112 | 0.552 | 437 |  |  |
| CCc1ccc(C(=O)NN(C(=O)c2ccccc2OC)C(C)(C)C)c(F)c1 [RG-115422] | 204 | 0.769 | 398 |  |  |
| CCc1c(OC)cccc1C(=O)NN(C(=O)c1cc(C)n(-c2ccccc2)n1)C(C)(C)C [RG-115721] |  |  |  |  | 2 |
| COc1cc(C(=O)N(NC(=O)c2ccc3c(c2Cl)COCO3)C(C)(C)C)cc(OC)c1C [RG-115441] | 118 | 0.759 | 126 |  |  |
